Data reported in the PolyMetriX glass transition set.
± gives the standard deviation of the reports.

Compound	glass transition temperature [°C]
*c1nc(C(F)(F)C(F)(F)OC(F)(F)F)nc(C(F)(F)C(F)(F)C(F)(F)C(*)(F)F)n1 (repeat unit) [Perfluoropolymer 2 ]	-18.6 ± 0.7
*CC=C(C*)CCC (repeat unit) [Poly(2-n-propyl-1 ,4-butadiene) ]	-77.6 ± 0.7

Remark: another data set of the same source

Compound	glass transition temperature [°C]
*C=Cc1cc(OC)c(*)cc1OCC(CC)CCCC (repeat unit)	66.00
*C=Cc1cc(OC)c(*)cc1OCCC(C)CCCC(C)C (repeat unit)	50.00

Other lines, results leading:

glass transition temperature [°C]	Compound
142.00	*c1ccc2c(c1)C(CCCCCCCC)(CCCCCCCC)c1cc(-c3ccc(-c4ccc(-c5ccc(*)s5)c5cc(-c6ccccc6)c(-c6ccccc6)nc45)s3)ccc1-2 (repeat unit)
74.00	*c1ccc2c3ccc(-c4sc(-c5ccc(-c6cc(CCCCCC)c(*)s6)c6nsnc56)cc4CCCCCC)cc3n(C(CCCCCCCC)CCCCCCCC)c2c1 (repeat unit)
164.00	*c1ccc(-c2ccc(OCCCC)c(-c3cc(*)ccc3OCCCC)c2)cc1 (repeat unit)
58.00	*c1ccc(-c2ccc(OCCCCCCCCCC)c(-c3cc(*)ccc3OCCCCCCCCCC)c2)cc1 (repeat unit)

Remark: another data set of the same source

glass transition temperature [°C]	Compound
190.00	*CC(N1C(=O)c2ccccc2C1=O)n1c(=O)c2cc3c(=O)n(*)c(=O)c3cc2c1=O (repeat unit)
245.00 ± 1.5	*c1ccc2c(c1)C(=O)N(c1cccc(Oc3cccc(N4C(=O)c5cccc(*)c5C4=O)c3)c1)C2=O (repeat unit)

Remark: another data set of the same source

Compound	glass transition temperature [°C]
*CC(*)C(=O)NCCCCCCCC (repeat unit) [Poly(N-octyl acrylamide)]	-53
*CC(*)C(=O)OCC#N (repeat unit) [Poly(cyanomethyl acrylate)]	23
*CC(*)Br (repeat unit) [Poly(vinyl bromide)]	100
*CC(*)C(=O)CC (repeat unit) [Poly(vinyl ethyl ketone)]	-60
